Source: US20140348807A1, “PROCESS FOR THE PREPARATION OF A BIOMASS COMPRISING PLANTARICIN AND USES THEREOF IN MEDICAL FIELD” (GIULIANI S.p.A., priority 2010, published 2014)
Where two headings read alike, the source gives them in different places. Ends that are not written are not given here.

Experiments:
[1] = test system: Cultured human keratinocytes; assay: Wound healing assay on cultured human keratinocyte monolayer (Example 2); format: cell-based; settings: 1 hour incubation with stimulus (Plantaricin A 2.5 μg/ml), then 24 hours
Protocol: Cultured human keratinocytes have been incubated with Plantaricin A (2.5 μg/ml) or Plantaricin A containing biomass for 1 hour.
At the end of the incubation, the cells have been washed and culture medium restored.
The test consists of carrying out a mechanical interruption in the continuity of the cellular monolayer in order the treatment effect in favouring or not the keratinocyte ability to migrate beyond the damage border and therefore “heal the lesion” to be evaluated.
To this end the keratinocyte monolayer, treated as above described, was incubated over aditional 24 hours after stimulus application and then fixed and stained using ematoxylin/eosin staining. Images have been observed with light microscope using 5× objective.
For each image maximum cell migration limits and distance or gap there between have been detected and calculated, respectively (FIG. 9-10).

Caco-2/TC7 cells [2] = assay: Caco-2/TC7 cell viability, Neutral Red absorption assay; format: cell-based, Human; settings: for viability of Caco-2/TC7 cells (Neutral Red) vs DMEM negative control: 2.5 μg/ml, incubation 24-72 hours; for negative effect of IFN-γ on Caco-2/TC7 viability under simultaneous plantaricin A treatment: IFN-γ 1000 U/ml + plantaricin A 2.5 μg/ml
Protocol: Human Caco-2/TC7 cells (TC7 clone) have been cultured in Dulbecco medium (DMEM), added with calf serum (10%), not essential amino acids (1%), gentamycin/streptomycin (50 μg/ml), glutamine (2 mM) and 4-2-hydroxyethyl-1-piperazinil-etansulfonic acid (1%) (Di Cagno et al., 2010. Quorum sensing in sourdough Lactobacillus plantarum DC400: induction of plantaricin A (PlnA) under co-cultivation with other lactic acid bacteria and effect of PlnA on bacterial and Caco-2 cells. Proteomics in press). Cell viability has been determined with absorption assay using Neutral Red dye (Balls et al., 1987. Approaches to validation alternative methods in toxicology. In: Goldber A. M. (Ed). N.Y. Academic Press pp. 45-58). After 24-72 hour treatment with various preparations, cells have been washed with PBS buffer and incubated for 4 hours at 37° C. with a Neutral Red solution (33 mg/I). Successively, the cells have been again washed with PBS buffer and treated with lysis solution (50% ethanol in 1% acetic acid containing water). Plate reading has been carried out using Novapath plate reader (Biorad, Hercules, Calif.). Di Cagno et al., 2010. Quorum sensing in sourdough Lactobacillus plantarum DC400: induction of plantaricin A (PlnA) under co-cultivation conditions with other lactic acid bacteria and effect of PlnA on bacterial and Caco-2 cells. Proteomics in press).

Caco-2/TC7 cells [3] = assay: TEER of Caco-2/TC7 cell layer; format: cell-based, Human; settings: for negative effect of IFN-γ on Caco-2/TC7 TEER with added plantaricin A: IFN-γ 1000 U/ml + plantaricin A 2.5 μg/ml
Protocol: For TEER determination Caco-2/TC7 cells have been inoculated (7.5×10^4 cells/ml) in a 24 well plate and a polyethylene filter (0.4 μm pore). Before the treatment, the cells have been incubated for 21 days at 37° C. Treatments with various preparations have been carried out for 18, 24 and 48 hours. Integrity of the cellular layer therefore has been determined by means of TEER determination.

[4] = test system: human NCTC 2544 keratinocyte cell line; format: cell-based; settings: 0.1 μg/ml
Protocol: The used cell line is a human NCTC 2544 keratinocyte cell line (Perry, V. P., Sanford, K. K., Evans, V. J., Hyatt, G. W., Earle, W. R., 1957. Establishment of clones of epithelial cells from human skin. J Natl Cancer Inst. 18 (5): 709-717) cultured in sterile flasks, incubated at 37° C. in humid atmosphere at 5% CO2 in MEM (Minimum Essential Medium) culture medium added with 10% bovine calf serum (FBS), 2 mM L-glutamine, 1% not essential amino acids, in the presence of 1% penicillin and streptomycin. Cells grow in vitro adhering to culture plate surface as a monolayer.
The experiment firstly involves the development of confluent cell monolayer. Successively the cut is carried out and the generated “gap” is observed using microscope as cells gradually moving repair the damage.
NCTC 2544 cells are plated and cultured at 37° C., with 5% CO2 for 24 hours.
After 24 hours complete growth medium is replaced with serum free medium to avoid the serum effect on cell proliferation and cells are incubated for further 24 hours at 37° C., 5% CO2.
After 24 hours the cell monolayer is mechanically damaged by mild 200 μl pipette tip brushing tracking a ˜1 mm wide horizontal line. Then the monolayer is washed and after addition of substances to be tested, the plates are incubated at 37° C., 5% CO2 for 72 hours.
the effect of the substances on cell motility is evaluated using phase contrast reverse microscope, acquiring images at various opportunely selected analysis times.
the damage remedy is determined measuring the clear area between the cut two migration fronts at 0, 4, 8, 12, 24, 48, 72 hours after the cut, using an image processing software (Leica application Suite).
After the cut on the cellular monolayer has been carried out using a 200 μl pipette tip and the cells within the gap between two cut lines completely removed, said cells are treated with synthetic and co-culture deriving Plantaricin at the following concentrations: 0.1-1-10 μg/ml. Also positive and negative controls (connectivine at 100 μg/ml) have been duplicate tested.
Images on the same cut area have been acquired at time 0 and after 4, 8, 12, 24, 48 and 72 hours, to monitor the cell migration in the cut area.

Substance	gap between the wound margins vs control cells [1]	viability of Caco-2/TC7 cells (Neutral Red) vs DMEM negative control (Caco-2/TC7 cells [2])	negative effect of IFN-γ on Caco-2/TC7 viability under simultaneous plantaricin A treatment (Caco-2/TC7 cells [2])	TEER values for Caco-2/TC7 cells (Caco-2/TC7 cells [3]; 2.5 μg/ml, 24 and 48 hours, vs DMEM)	negative effect of IFN-γ on Caco-2/TC7 TEER with added plantaricin A (Caco-2/TC7 cells [3])	percentage of migrated cells in comparison to the positive control ([4]; 1st of six time values (4 h))	percentage of migrated cells in comparison to the positive control ([4]; 2nd of six time values (8 h))	percentage of migrated cells in comparison to the positive control ([4]; 3rd of six time values (12 h))	percentage of migrated cells in comparison to the positive control ([4]; 4th of six time values (24 h))	percentage of migrated cells in comparison to the positive control ([4]; 5th of six time values (48 h))	percentage of migrated cells in comparison to the positive control ([4]; 6th of six time values (72 h))
hyaluronic acid	lesion gap is narrower than for not treated cells	–	–	–	–	–	–	–	–	–	–
KSSAYSLQMGATAIKQVKKLFKKWGW [purified plantaricin A]	–	remarkably increased	completely eliminated	remarkable increase	eliminated also in this case the negative effects	–	–	–	–	–	–
KSSAYSLQMGATAIKQVKKLFKKWGW [chemically synthesized plantaricin A]	–	Same result	completely eliminated	–	eliminated also in this case the negative effects	158.30%	115.15%	124.32%	141.82%	141.91%	128.51%
